{
  "source": "patent US12583884B2",
  "about": "“3beta-(benzyloxy)-17alpha-methyl-pregn-5-en-20-one for use in the treatment of cognitive disorders” (AELIS FARMA, priority 2018, dated 2026)",
  "key": {"[1]": {"assay": "Depressive-like behaviors in the sucrose preference test", "type": "in vivo, mouse", "procedure": "Sucrose preference was tested in the home cages of the mice. A sucrose solution containing 2% of sucrose (D(+) saccharose) in tap water was poured in plastic graduated bottles (volume in each bottle, 45 ml). Identical bottles were filled with tap water. All the mice were first habituated to the bottles and to the sucrose solution. One bottle containing water and one bottle containing sucrose were placed in the hopper of each home cage. […] The mice had access to the solutions from the beginning of the dark phase, at the daily peak of food and water consumption (from 7 pm to 8.30 am). The sucrose preference test was performed seven days later. Water and sucrose solutions were presented as described for habituation except that mice had access to the solutions from 12 pm to 10 pm. At each time point, the bottles were weighed, 1 g corresponding to 1 ml. The intake volume was calculated by subtracting the initial bottle weight to the final bottle weight.\n15 or 30 mg/kg or of vehicle (corn oil; 5 ml/kg) was studied in the sucrose preference test in 2-month-old male C57B1/6J mice (n=7-8 per group). Rimonabant was dissolved in a vehicle containing dimethylsulfoxide (DMSO, 2%), Tween80 (2%) in injectable NaCl 0.9%. Within the same study, the effect of repeated intraperitoneal injections of rimonabant at 10 mg/kg or of vehicle alone (10 ml/kg) was studied in the sucrose preference test in 2-month-old male C57B1/6J mice (n=8 per group)."}, "[2]": {"target": "T1, Steroid nuclear receptors AR (Homo sapiens, UniProt P10275)", "T1 construct": "CEREP", "T1 sequence (P10275 whole entry)": "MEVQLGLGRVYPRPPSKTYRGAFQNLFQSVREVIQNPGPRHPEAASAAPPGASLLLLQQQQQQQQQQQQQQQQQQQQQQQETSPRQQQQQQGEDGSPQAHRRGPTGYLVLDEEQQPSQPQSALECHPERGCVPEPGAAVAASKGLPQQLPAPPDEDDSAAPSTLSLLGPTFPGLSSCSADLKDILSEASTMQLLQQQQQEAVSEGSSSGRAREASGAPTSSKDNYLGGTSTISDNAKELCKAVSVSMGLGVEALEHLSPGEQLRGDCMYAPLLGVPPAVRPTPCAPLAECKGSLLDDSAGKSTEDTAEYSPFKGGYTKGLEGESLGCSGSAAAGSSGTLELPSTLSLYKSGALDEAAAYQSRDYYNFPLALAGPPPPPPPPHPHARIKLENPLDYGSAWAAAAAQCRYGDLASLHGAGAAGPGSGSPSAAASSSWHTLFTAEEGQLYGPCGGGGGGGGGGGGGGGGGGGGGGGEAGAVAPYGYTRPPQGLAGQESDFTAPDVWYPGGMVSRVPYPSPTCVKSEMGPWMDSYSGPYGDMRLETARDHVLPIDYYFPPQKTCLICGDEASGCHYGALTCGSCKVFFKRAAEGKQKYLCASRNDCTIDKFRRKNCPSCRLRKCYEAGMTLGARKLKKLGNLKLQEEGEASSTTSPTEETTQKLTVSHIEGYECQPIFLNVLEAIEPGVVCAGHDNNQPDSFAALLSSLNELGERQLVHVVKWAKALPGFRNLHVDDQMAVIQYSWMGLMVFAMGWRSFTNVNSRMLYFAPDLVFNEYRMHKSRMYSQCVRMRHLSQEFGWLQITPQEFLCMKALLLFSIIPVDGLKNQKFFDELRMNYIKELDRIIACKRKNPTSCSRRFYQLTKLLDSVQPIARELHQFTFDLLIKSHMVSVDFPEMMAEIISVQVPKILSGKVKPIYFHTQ", "assay": "Binding: AR", "from_the_text": "(§1) The CEREP High-throughput profile consists of a broad collection of 80 transmembrane and soluble receptors, ion channels and G-Protein coupled receptors."}, "[3]": {"tested_on": "19 to 22-month-old C57B1/6J mice", "assay": "Declarative/relational memory (radial maze flexibility test), aged mice", "type": "in vivo, mouse", "conditions": "0.6 μg/ml in drinking water, chance level 50%", "procedure": "The relational memory task was performed using 8-arm radial mazes described in Example 3b. Food restriction and habituation procedures were performed as described in Example 3b. Acquisition began 24 h after the last habituation session. The acquisition stage consisted in learning the positions of the food pellets within the maze. […] One arm of each pair contained reward at its end, the other arm of each pair was not baited.\nAcquisition is based on a go-no go procedure. The arms are presented one by one. Subjects are expected to visit the rewarded arms faster than the non-rewarded arms. At the beginning of each daily session, the mouse was placed at the center of the maze with no access to the arms. The doors of the first arm then opened. […] The door of an arm then open immediately after (0-sec inter-trial interval). […] Each daily session contained 40 successive arm presentations (i.e. trials) organized into two distinct temporal sequences. In the first sequence (20 trials), four arms of the maze were presented alternatively (two baited and two non-baited). Consecutively, the second sequence started (20 trials); the four other arms of the maze were presented alternatively (two baited and two non-baited). […]\nAt each trial, the latency to visit the arm is measured. […]\nFlexibility of learning was evaluated in the following conditions. […]\nThe percentage of correct responses for each pair was measured. […]"}, "[4]": {"tested_on": "Ts65Dn mice", "assay": "Working memory (radial maze), Down syndrome model", "type": "in vivo, mouse", "conditions": "0.06 μg/ml in drinking water", "procedure": "The working memory task was performed using 8-arm radial mazes described in Example 3a. Food restriction and habituation procedure were performed as described in Example 3a. The working memory procedure began 24 h after the last habituation session. Each mouse was submitted to 15 daily learning sessions (5 blocks of 3 days) made of 23 trials each. Six arms out of eight were used during the working memory test (3 pairs (A, B or C) of adjacent arms).\nAt the beginning of each daily session, the mouse was placed at the center of the maze with no access to the arms. The doors of the first pair of arms then opened giving access to both arms of the pair. Once the mouse had visited one of the arms and goes back to the central platform, the door closed, and the animal was confined in the central platform for 10 sec (inter-trial interval, ITI) before two doors opened again giving access to a pair of arms. Once the animal had visited one of the arms and returns to the central platform the doors close again for 10 sec before the next trial. Within each session, the mouse was submitted to repeated and successive presentations of the 3 pairs of arms one at a time. At the first presentation of each arm pair the food reward was present in both arms. […]"}, "[5]": {"assay": "Spontaneous behaviors in the home cage (video analysis)", "type": "in vivo, mouse", "conditions": "30 mg/kg per os; 24 hours video analysis"}, "[6]": {"tested_on": "85 receptors", "assay": "CEREP High-throughput binding profile (85 receptors), whole panel", "from_the_text": "as §1"}},
  "data": [
    {"smiles": "CC(=O)[C@@]1(C)CC[C@H]2[C@@H]3CC=C4C[C@@H](OCc5ccccc5)CC[C@]4(C)[C@H]3CC[C@@]21C", "note": "[3Bn17MeP, 3β-benzyloxy, 17α-methyl-pregn-5-en-20-one]", "values": [
      {"measurement": "Sucrose intake", "setting": "[1]; 0.05, 5, 15, 30 mg/kg per os once a day, 28 days", "value": "had no effect on sucrose intake"},
      {"measurement": "Effect: increase in depression-related behaviors (repeated administration)", "setting": "[1]; male mice, highest dose tested 30 mg/kg", "value": "No"},
      {"measurement": "inhibition at 10 µM", "setting": "[2]", "value": 16, "unit": "%"},
      {"measurement": "Correct responses in the flexibility test (choice accuracy)", "setting": "[3]", "value": "more than 70%"},
      {"measurement": "Correct responses (working memory)", "setting": "[4]", "value": "increased correct responses in Ts65Dn as compared to vehicle mice that reached the level of WT"},
      {"measurement": "Effects on spontaneous behaviors per se", "setting": "[5]", "value": "no detectable effects"},
      {"measurement": "Modification of the binding of the 85 receptors", "setting": "[6]; 10 μM", "value": "does not modify the binding of any of the 85 receptors"},
      {"measurement": "IC50", "setting": "[6]; CEREP High-throughput binding profile (85 receptors), read-out: ID50 (the source's name)", "value": "> 10", "unit": "µM"}
    ]}
  ]
}
